The series deals with C1R-A24 cells. The series is described as follows: Cytotoxity test (51Cr release) with peptide-stimulated CD8-positive T cells of a cancer patient. The class given is cell-based, human. The settings on record: target C1R-A24 cells added with 1 iM of the peptide, effecter CD8-positive T cells after MLPC twice, six hours, FIG. 8. The procedure: Peripheral blood of a patient whose D40 gene expression in the tumor tissue was observed by RT-PCR method was multi-layered in Ficoll-Conray solution with specific gravity of 1.082 and the blood was separated to plasma, lymphocyte phase, Ficoll-Conray phase and erythrocyte phase from the top by centrifugation of 1500 rpm for 30 min. The lymphocyte phase was collected and cultured for a day in AIM-V, a serum-free medium, after which the cell population adhered to the bottom of the culture flask and the suspended cell population were separated by gently shaking the flask. The adhered cell population is a cell population called PBMC (peripheral blood mononuclear cells) which includes B cells, macrophages and dendritic cells that are so-called antigen-presenting cells (APC). […] The APC after the culture were treated with radioactivity in order to get rid of their proliferation ability.
On the other hand, the suspended cell population mainly contains T cells and these suspended cells were cultured in AIM−V+IL−2 for four days. […] These CD8-positive T cells were added to APC, which have been treated with radioactivity as mentioned above, and cultured for two days. […] Then the radioactivity of ^51Cr released from the target C1R-A24 cells were measured and the cytotoxity activity (%) was calculated. […]

Where no end group is shown, it is not given here.

From patent US20040029197A1, “Novel human cancer/testis antigen and gene thereof” (priority 2000, published 2004) come the findings set out here.

Take “SYTIEINHRL [SYTIEINHRL, Ser-Tyr-Thr-Ile-Glu-Ile-Asn-His-Arg-Leu]”: the “cytotoxic activity of T cells derived from peripheral blood of a cancer patient” value is “specifically injured target C1R-A24 cells”.
